Results as given in patent US20130065757A1, “CHEMICAL COMPOUNDS” (Syngenta Limited, priority 2010, published 2013).

Tests used:
Format in all cases: in vivo
[1] = tested on: Alopecurus myosuroides (ALOMY); test: Pre-emergence biological efficacy, glasshouse pot test; details: 312 h, 1,000 g/ha, evaluated after 13 days, 100=total damage, 0=no damage, read-out: Percentage damage caused to weed species, pre-emergence, ALOMY
Experimental: (§1) Seeds of Alopecurus myosuroides (ALOMY), Setaria faberi (SETFA), Echinochloa crus-galli (ECHCG), Solanum nigrum (SOLNI), Amaranthus retroflexus (AMARE) and Ipomoea hederaceae (IPOHE) were sown in standard soil in pots. After cultivation for one day under controlled conditions in a glasshouse (at 24/16° C., day/night; 14 hours light; 65% humidity), the plants were sprayed with an aqueous spray solution derived from the formulation of the technical active ingredient in acetone/water (50:50) solution containing 0.5% Tween 20 (polyoxyethylene sorbitan monolaurate, CAS RN 9005-64-5) to give a final dose of 1000 g/ha of test compound.
(§2) The test plants were then grown under controlled conditions in the glasshouse (at 24/16° C., day/night; 14 hours light; 65% humidity) and watered twice daily. After 13 days the test was evaluated (100=total damage to plant; 0=no damage to plant).

[2] = tested on: Amaranthus retroflexus (AMARE); test: as above; details: 312 h, 1,000 g/ha, evaluated after 13 days, 100=total damage, 0=no damage, read-out: Percentage damage caused to weed species, pre-emergence, AMARE
Experimental: as §1, §2

[3] = tested on: Echinochloa crus-galli (ECHCG); test: as above; details: 312 h, 1,000 g/ha, evaluated after 13 days, 100=total damage, 0=no damage, read-out: Percentage damage caused to weed species, pre-emergence, ECHCG
Experimental: as §1, §2

[4] = tested on: Ipomoea hederaceae (IPOHE); test: as above; details: 312 h, 1,000 g/ha, evaluated after 13 days, 100=total damage, 0=no damage, read-out: Percentage damage caused to weed species, pre-emergence, IPOHE
Experimental: as §1, §2

[5] = tested on: Setaria faberi (SETFA); test: as above; details: 312 h, 1,000 g/ha, evaluated after 13 days, 100=total damage, 0=no damage, read-out: Percentage damage caused to weed species, pre-emergence, SETFA
Experimental: as §1, §2

[6] = tested on: Solanum nigrum (SOLNI); test: as above; details: 312 h, 1,000 g/ha, evaluated after 13 days, 100=total damage, 0=no damage, read-out: Percentage damage caused to weed species, pre-emergence, SOLNI
Experimental: as §1, §2

[7] = tested on: Alopecurus myosuroides (ALOMY); test: Post-emergence biological efficacy, glasshouse pot test; details: 312 h, 1,000 g/ha, post-emergence (sprayed after 8 days), evaluated after 13 days, 100=total damage, 0=no damage, read-out: Percentage damage caused to weed species, post-emergence, ALOMY
Experimental: as §1, with “8 days” for “one day”
(§3) The test plants were then grown on under controlled conditions in a glasshouse (at 24/16° C., day/night; 14 hours light; 65% humidity) and watered twice daily. After 13 days the test was evaluated (100=total damage to plant; 0=no damage to plant).

[8] = tested on: Amaranthus retroflexus (AMARE); test: as above; details: 312 h, 1,000 g/ha, post-emergence (sprayed after 8 days), evaluated after 13 days, 100=total damage, 0=no damage, read-out: Percentage damage caused to weed species, post-emergence, AMARE
Experimental: as §1, with “8 days” for “one day”
as §3

[9] = tested on: Echinochloa crus-galli (ECHCG); test: as above; details: 312 h, 1,000 g/ha, post-emergence (sprayed after 8 days), evaluated after 13 days, 100=total damage, 0=no damage, read-out: Percentage damage caused to weed species, post-emergence, ECHCG
Experimental: as §1, with “8 days” for “one day”
as §3

[10] = tested on: Ipomoea hederaceae (IPOHE); test: as above; details: 312 h, 1,000 g/ha, post-emergence (sprayed after 8 days), evaluated after 13 days, 100=total damage, 0=no damage, read-out: Percentage damage caused to weed species, post-emergence, IPOHE
Experimental: as §1, with “8 days” for “one day”
as §3

[11] = tested on: Setaria faberi (SETFA); test: as above; details: 312 h, 1,000 g/ha, post-emergence (sprayed after 8 days), evaluated after 13 days, 100=total damage, 0=no damage, read-out: Percentage damage caused to weed species, post-emergence, SETFA
Experimental: as §1, with “8 days” for “one day”
as §3

[12] = tested on: Solanum nigrum (SOLNI); test: as above; details: 312 h, 1,000 g/ha, post-emergence (sprayed after 8 days), evaluated after 13 days, 100=total damage, 0=no damage, read-out: Percentage damage caused to weed species, post-emergence, SOLNI
Experimental: as §1, with “8 days” for “one day”
as §3

Row | Compound | pest or weed control at 1000 g/ha [1] [%] | pest or weed control at 1000 g/ha [2] [%] | pest or weed control at 1000 g/ha [3] [%] | pest or weed control at 1000 g/ha [4] [%] | pest or weed control at 1000 g/ha [5] [%] | pest or weed control at 1000 g/ha [6] [%] | pest or weed control at 1000 g/ha [7] [%] | pest or weed control at 1000 g/ha [8] [%] | pest or weed control at 1000 g/ha [9] [%] | pest or weed control at 1000 g/ha [10] [%] | pest or weed control at 1000 g/ha [11] [%] | pest or weed control at 1000 g/ha [12] [%]
1 | C/C=C/c1c(N)cc(Cl)nc1C(=O)OC [2-5 (E isomer), (E)-4-Amino-6-chloro-3-(prop-1-enyl)-pyridine-2-carboxylic acid methyl ester] | 90 | 90 | 70 | 100 | 100 | 100 | 50 | 100 | 60 | 70 | 70 | 90
2 | C/C=C\c1c(N)cc(Cl)nc1C(=O)OC [2-5 (Z isomer), (Z)-4-Amino-6-chloro-3-(prop-1-enyl)-pyridine-2-carboxylic acid methyl ester] | 90 | 100 | 70 | 90 | 100 | 100 | 50 | 100 | 60 | 50 | 80 | 100
3 | C=Cc1c(C(=O)O)nc(Cl)c(Cl)c1N [Compound 1-20, 4-Amino-5,6-dichloro-3-ethenyl-pyridine-2-carboxylic acid] | 90 | 100 | 90 | 100 | 90 | 100 | 90 | 100 | 90 | 100 | 90 | 90
4 | COC(=O)c1nc(Cl)cc(N)c1C [Compound 2-1, 4-amino-6-chloro-3-methyl-pyridine-2-carboxylic acid methyl ester] | 90 | 100 | 70 | 80 | 80 | 100 | 90 | 100 | 60 | 50 | 100 | 90
5 | COC(=O)c1nc(Cl)cc(N)c1C(F)(F)F [Compound 2-2, 4-amino-6-chloro-3-trifluoromethyl-pyridine-2-carboxylic acid methyl ester] | 20 | 80 | 10 | 90 | 0 | 80 | 10 | 80 | 10 | 70 | 10 | 80
